PubChem BioAssay AID1963968 (Molecular Pharmacology Branch, DTP, NCI, 2024)
pIC50: −log10 of the molar value.

Tested on: 945468-187-T-J3-PDC spheroids with HUVEC/MSC, viability
Assay: Anticancer human tumor 945468-187-T-J3-PDC patient-derived rectal carcinoma cell line growth inhibition [PI3K]
Conditions: for pIC50: curve of first compound; for viability, T/C: stronger effect = lower value
Description: Combinatorial screen of targeted agents with the PI3K inhibitors inavolisib, alpelisib, duvelisib, and copanlisib in multi-cell type tumor spheroids
A high-throughput screen of multi-cell type tumor spheroids was designed to identify active combinations of targeted small molecules and PI3K pathway inhibitors. Complex spheroids include a stromal component modeled by human endothelial cells (HUVEC) and fibroblasts modeled by human mesenchymal stem cells (MSCs). The concentration ranges selected for each drug and investigational agent were based upon clinically achievable concentrations if the clinical Cmax of the agent was known.
Compounds. The drugs and investigational agents: inavolisib (NSC800729), alpelisib (NSC765974), duvelisib (NSC772469), copanlisib (NSC816437), ipatasertib (NSC767898), afuresertib (NSC778305), talazoparib (NSC767125), sapanisertib (NSC764658), selumetinib (NSC741078), tovorafenib (DAY101, NSC766906), vemurafenib (NSC761431), ravoxertinib (NSC781343), sotorasib (NSC818433), MRTX1133 (NSC 836407), abemaciclib (NSC 768073), palbociclib (NSC758247), venetoclax (NSC 766270), SY5609 (NSC837396), enzalutamide (NSC755605), and darolutamide (NSC825331), were obtained from the National Cancer Institute (NCI) Developmental Therapeutics Program Chemical Repository. The FDA-approved anticancer drug set is available from the NCI Developmental Therapeutics Program. […] The stock solutions were prepared in dimethyl sulfoxide (DMSO, Sigma-Aldrich, St. Louis, MO, cat. D2650) at 800-fold the tested concentration and stored at -70 degrees C prior to their use. All drugs and investigational agents were tested over a range starting from a high concentration at or near the clinical Cmax and decreasing in half-log increments. If the clinical Cmax for an agent had not been determined, the highest concentration tested was 10 microM.
Cell Culture. All cells were maintained in an incubator at 37 degrees C and 5% CO2 with 95% humidity. The PDC lines were cultured according to standard operating procedures established by the NCI PDMR (https://pdmr.cancer.gov/sops/default.htm). All PDCs were thawed and cultured in Matrigel-coated flasks prepared with a working solution of 1X Ham's F-12 nutrient mix, without supplementation (Invitrogen, Waltham, MA, cat. 11765054), 100 U/mL penicillin-streptomycin (Invitrogen, cat. 15140122), and 2.5% Matrigel (Corning Inc., Corning, NY, cat. 354248) for the first three passages. The 354836-022-R-J1-PDC, 475296-252-R-J1-PDC, and 997726-040-R-J2-PDC lines were cultured in 6A media, which includes advanced DMEM/F-12 (Thermo Fisher Scientific, cat. 12634028), 10 mM HEPES (Thermo Fisher Scientific, cat. 15630080), 1X GlutaMAX supplement (Thermo Fisher Scientific, cat. 35050061), 0.1 mg/mL primocin (InvivoGen, San Diego, CA, cat. ant-pm-2), 10% defined fetal bovine serum, heat inactivated (HyClone Laboratories Inc., Logan, UT, cat. SH30070.03HI), 50% L-WRN conditioned media (ATCC, cat. CRL-3276), 1.25 mM N-Acetyl-L-cysteine (Sigma-Aldrich, cat. A9165), 10 mM nicotinamide (Sigma-Aldrich, cat. N0636), 1X B-27 supplement (Thermo Fisher Scientific, cat. 17504044), 1X N-2 supplement (Thermo Fisher Scientific, cat. 17502048), and 10 microM Y-27632 dihydrochloride (Tocris Bioscience, Bristol, United Kingdom, cat. 1254). The 624824-186-R-J2-PDC line was cultured in 6C/Colon 1B media, which includes all 6A media components plus 50 ng/mL human EGF recombinant protein (Thermo Fisher Scientific, cat. PHG0311). […]
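Also: spheroids exposed to agents for 7 days before viability read.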
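For viability, T/C in this document: 100% = DMSO vehicle control viability.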

SMILES: CNC(=O)c1ccc(N2C(=S)N(c3ccc(C#N)c(C(F)(F)F)c3)C(=O)C2(C)C)cc1F + CC(Nc1ccc2c(c1)OCCn1cc(N3C(=O)OCC3C(F)F)nc1-2)C(N)=O
- pIC50 (second compound 0.00316 µM): < 5.00
- pIC50 (second compound 0.01 µM): < 5.00
- pIC50 (second compound 0.0316 µM): < 5.00
- pIC50 (second compound 0.1 µM): < 5.00
- pIC50 (second compound 0.316 µM): < 5.00
- pIC50 (second compound 1 µM): < 5.00
- viability, T/C (second compound 0.00316 µM, first compound 0.0316 µM): 92.4%
- viability, T/C (second compound 0.00316 µM, first compound 0.1 µM): 108%
- viability, T/C (second compound 0.00316 µM, first compound 0.316 µM): 109%
- viability, T/C (second compound 0.00316 µM, first compound 1 µM): 108%
- viability, T/C (second compound 0.00316 µM, first compound 3.16 µM): 132%
- viability, T/C (second compound 0.00316 µM, first compound 10 µM): 103%
- viability, T/C (second compound 0.01 µM, first compound 0.0316 µM): 105%
- viability, T/C (second compound 0.01 µM, first compound 0.1 µM): 124%
- viability, T/C (second compound 0.01 µM, first compound 0.316 µM): 115%
- viability, T/C (second compound 0.01 µM, first compound 1 µM): 129%
- viability, T/C (second compound 0.01 µM, first compound 3.16 µM): 111%
- viability, T/C (second compound 0.01 µM, first compound 10 µM): 108%
- viability, T/C (second compound 0.0316 µM, first compound 0.0316 µM): 110%
- viability, T/C (second compound 0.0316 µM, first compound 0.1 µM): 118%
- viability, T/C (second compound 0.0316 µM, first compound 0.316 µM): 111%
- viability, T/C (second compound 0.0316 µM, first compound 1 µM): 126%
- viability, T/C (second compound 0.0316 µM, first compound 3.16 µM): 109%
- viability, T/C (second compound 0.0316 µM, first compound 10 µM): 111%
- viability, T/C (second compound 0.1 µM, first compound 0.0316 µM): 121%
- viability, T/C (second compound 0.1 µM, first compound 0.1 µM): 108%
- viability, T/C (second compound 0.1 µM, first compound 0.316 µM): 125%
- viability, T/C (second compound 0.1 µM, first compound 1 µM): 128%
- viability, T/C (second compound 0.1 µM, first compound 3.16 µM): 126%
- viability, T/C (second compound 0.1 µM, first compound 10 µM): 109%
- viability, T/C (second compound 0.316 µM, first compound 0.0316 µM): 124%
- viability, T/C (second compound 0.316 µM, first compound 0.1 µM): 104%
- viability, T/C (second compound 0.316 µM, first compound 0.316 µM): 108%
- viability, T/C (second compound 0.316 µM, first compound 1 µM): 115%
- viability, T/C (second compound 0.316 µM, first compound 3.16 µM): 121%
- viability, T/C (second compound 0.316 µM, first compound 10 µM): 108%
- viability, T/C (second compound 1 µM, first compound 0.0316 µM): 79.8%
- viability, T/C (second compound 1 µM, first compound 0.1 µM): 63.1%
- viability, T/C (second compound 1 µM, first compound 0.316 µM): 72.7%
- viability, T/C (second compound 1 µM, first compound 1 µM): 81.1%
- viability, T/C (second compound 1 µM, first compound 3.16 µM): 94.5%
- viability, T/C (second compound 1 µM, first compound 10 µM): 94.3%

SMILES: Cn1cnc2c(F)c(Nc3ccc(Br)cc3Cl)c(C(=O)NOCCO)cc21 + CC(Nc1ccc2c(c1)OCCn1cc(N3C(=O)OCC3C(F)F)nc1-2)C(N)=O
- pIC50 (second compound 0.00316 µM): < 5.52
- pIC50 (second compound 0.01 µM): < 5.52
- pIC50 (second compound 0.0316 µM): < 5.52
- pIC50 (second compound 0.1 µM): 6.08
- pIC50 (second compound 0.316 µM): 6.93
- pIC50 (second compound 1 µM): 7.49
- viability, T/C (second compound 0.00316 µM, first compound 0.00949 µM): 105%
- viability, T/C (second compound 0.00316 µM, first compound 0.03 µM): 100%
- viability, T/C (second compound 0.00316 µM, first compound 0.0949 µM): 117%
- viability, T/C (second compound 0.00316 µM, first compound 0.3 µM): 116%
- viability, T/C (second compound 0.00316 µM, first compound 0.949 µM): 114%
- viability, T/C (second compound 0.00316 µM, first compound 3 µM): 95.3%
- viability, T/C (second compound 0.01 µM, first compound 0.00949 µM): 103%
- viability, T/C (second compound 0.01 µM, first compound 0.03 µM): 105%
- viability, T/C (second compound 0.01 µM, first compound 0.0949 µM): 114%
- viability, T/C (second compound 0.01 µM, first compound 0.3 µM): 111%
- viability, T/C (second compound 0.01 µM, first compound 0.949 µM): 126%
- viability, T/C (second compound 0.01 µM, first compound 3 µM): 91.2%
- viability, T/C (second compound 0.0316 µM, first compound 0.00949 µM): 107%
- viability, T/C (second compound 0.0316 µM, first compound 0.03 µM): 119%
- viability, T/C (second compound 0.0316 µM, first compound 0.0949 µM): 120%
- viability, T/C (second compound 0.0316 µM, first compound 0.3 µM): 100%
- viability, T/C (second compound 0.0316 µM, first compound 0.949 µM): 97.1%
- viability, T/C (second compound 0.0316 µM, first compound 3 µM): 62.7%
- viability, T/C (second compound 0.1 µM, first compound 0.00949 µM): 114%
- viability, T/C (second compound 0.1 µM, first compound 0.03 µM): 116%
- viability, T/C (second compound 0.1 µM, first compound 0.0949 µM): 104%
- viability, T/C (second compound 0.1 µM, first compound 0.3 µM): 73.3%
- viability, T/C (second compound 0.1 µM, first compound 0.949 µM): 49.5%
- viability, T/C (second compound 0.1 µM, first compound 3 µM): 33%
- viability, T/C (second compound 0.316 µM, first compound 0.00949 µM): 85.2%
- viability, T/C (second compound 0.316 µM, first compound 0.03 µM): 73.1%
- viability, T/C (second compound 0.316 µM, first compound 0.0949 µM): 52.7%
- viability, T/C (second compound 0.316 µM, first compound 0.3 µM): 35.4%
- viability, T/C (second compound 0.316 µM, first compound 0.949 µM): 26%
- viability, T/C (second compound 0.316 µM, first compound 3 µM): 19.2%
- viability, T/C (second compound 1 µM, first compound 0.00949 µM): 60.4%
- viability, T/C (second compound 1 µM, first compound 0.03 µM): 50.7%
- viability, T/C (second compound 1 µM, first compound 0.0949 µM): 36.9%
- viability, T/C (second compound 1 µM, first compound 0.3 µM): 23.3%
- viability, T/C (second compound 1 µM, first compound 0.949 µM): 15.9%
- viability, T/C (second compound 1 µM, first compound 3 µM): 11.7%
